Laboratory results reported in US5545638A, “Method of treating gastrointestinal motility disorders” (Novo Nordisk A/S, priority 1995, dated 1996).
Structures can show the parent of a compound that is named as a salt.

Biological target: muscarinic receptors
Test: Inhibition of ^3 H-oxotremorine-M binding to muscarinic receptors
Set-up: species or system rat (male Sprague-Dawley, cerebral cortex)
Settings: 3 nM ^3 H-oxotremorine-M, rat cerebral cortical membranes, 15 min, 25° C., pH 7.4; concentration to inhibit specific binding 50%; read-out: Inhibition of ^3 H-Oxo
Protocol: The affinity of the compounds for the muscarinic receptors was determined using the non-selective agonist ligand, ^3 H-oxotremorine-M. Birdsdall N. J. M., Hulme E. C., and Burgen A. S. V., "The Character of Muscarinic Receptors in Different Regions of the Rat Brain", 207 Proc. Roy. Soc. 1 (London, Series B, 1980). Each compound was tested to determine the affinity of the compound for the muscarinic receptors using the following procedure.
For each in vitro binding, male Sprague-Dawley (Harlan Sprague-Dawley, Indianapolis, Ind.) rats weighing from about 100 to about 150 grams each were sacrificed by decapitation. The brains were quickly removed and the cerebral cortex were dissected from the brain. The cerebral cortex tissue was homogenized in 10 volumes of 0.32M sucrose and homogenized for about 10 minutes at about 1000×g. […]
The aforementioned homogenates mixture was incubated for about 15 minutes at about 25° C. and then the homogenates were filtered through glass filters (Whatman, GF/C) with vacuum. The filters were washed 3 times with about 2 ml of cold tris-Cl buffer, and placed in scintillation vials containing about 10 ml of scintillation fluid (Ready Protein+, Beckman, Fullerton, Calif.). Radioactivity trapped on the filters was determined by liquid scintillation spectrometry. Nonspecific binding was determined using 1 μM atropine. […]

IC50: 2.7 nM
Compound: C=CCCCCOc1nsnc1C1=CCCN(C)C1 [Compound 33, 3-(3-(5-Hexenyloxy)-1,2,5-thiadiazol-4-yl)-1,2,5,6-tetrahydro-1-methylpyridine oxalate]
